pEC50: −log10 of the molar value.
Key:
[1] = Antiviral activity against Influenza A virus A//HK/7/87 (H3N2) expressing wild-type M2 proton channel infected in MDCK cells assessed as reduction in viral yield after 24 hrs by RT-qPCR method; assay type: functional, Influenza A virus (A/Hong Kong/7/1987(H3N2))
MDCK = assay: (§1) Cytotoxicity against MDCK cells assessed as reduction in cell viability after 72 hrs by MTS assay; assay type: cell-based, Canis lupus familiaris; settings: dog, mdck, 72 h
[2] = Antiviral activity against Influenza A virus A//HK/7/87 (H3N2) expressing wild-type M2 proton channel infected in MDCK cells assessed as reduction in plaque formation preincubated with virus for 1 hr followed by addition to cells measured after 72 hrs by crystal violet staining based assay; assay type: functional, cell-based, Influenza A virus (A/Hong Kong/7/1987(H3N2))
[3] = Antiviral activity against Influenza A virus (A2 Japan/305/57) H2N2 infected in MDCK cells assessed as reduction of virus-induced cytopathic effect after 4 to 5 days by MTS assay; assay type: functional, cell-based, Influenza A virus (A/Japan/305/1957(H2N2))
[4] = target: Matrix protein 2 (Influenza A virus (A/Udorn/307/1972(H3N2))) (UniProt P0DOF8); assay type: cell-based; settings: Influenza A virus (A/udorn/1972(H3N2)); 100 uM
[5] = target: Matrix protein 2 (Influenza A virus (A/Udorn/307/1972(H3N2))) (UniProt P0DOF8); assay type: cell-based; settings: Influenza A virus (A/udorn/1972(H3N2)); 100 uM; remark: listed apart in the source
[6] = as §1; assay type: cell-based, Canis lupus familiaris; settings: dog, MDCK cells

Matrix protein 2 (Influenza A virus (A/Udorn/307/1972(H3N2))), sequence (P0DOF8 whole entry): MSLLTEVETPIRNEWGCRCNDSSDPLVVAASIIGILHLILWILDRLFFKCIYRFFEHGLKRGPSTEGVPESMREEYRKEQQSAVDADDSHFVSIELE

Row | Compound | EC99 [1] [µM] | CC50 (MDCK) [µM] | pEC50 [2] | pEC50 [3] | inhibition [4] [%] | inhibition [5] [%] | CC50 at 72 h [6] [µM]
1 | C1CCC(C23CC4CC(CC(C4)C2)C3)NC1 (stereo not drawn) | 3.5 | > 100 | 6.00 | 5.48 |  |  | 
2 | CN1CCC(CC2C3CC4CC(C3)CC2C4)CC1 (stereo not drawn) | > 2 | 6.2 | < 5.00 |  |  |  | 
3 | N=C(N)N1CCC(CC2C3CC4CC(C3)CC2C4)CC1 (stereo not drawn) | > 2 | 3.8 | < 5.00 |  |  |  | 
4 | C1CC(CC2C3CC4CC(C3)CC2C4)CCN1 (stereo not drawn) | > 2 | 15 | < 5.00 |  |  |  | 
5 | NC12CC3CC(CC(C3)C1)C2 [AMANTADINE] | 0.51 |  | 6.85 |  |  |  | 
6 | OC1(C2CCNCC2)C2CC3CC(C2)CC1C3 (stereo not drawn) | 76 | > 100 | < 4.00 |  | 30 | 25 | 
7 | C1CC(C23CC4CC(CC(C4)C2)C3)CCN1 | ≥ 1.7 | 18 | 6.85 |  |  |  | 
8 | C(=C1C2CC3CC(C2)CC1C3)C1CCNCC1 | > 10 |  | < 5.30 |  |  |  | 25
9 | C1CC(C2C3CC4CC(C3)CC2C4)CCN1 (stereo not drawn) | ≥ 50 | > 100 |  |  |  |  | 
10 | OC1(CC2CCNCC2)C2CC3CC(C2)CC1C3 (stereo not drawn) | > 50 | > 50 | 5.00 |  |  |  | 
11 | CC(N)C12CC3CC(CC(C3)C1)C2 (stereo not drawn) [RIMANTADINE] | 1.1 | > 500 | 7.80 |  |  |  | 
12 | N=C(N)N1CCC(C=C2C3CC4CC(C3)CC2C4)CC1 | > 2 |  | < 5.30 |  |  |  | 19
13 | N=C(N)N1CCC(C23CC4CC(CC(C4)C2)C3)CC1 | > 2 | 10 | < 4.30 |  |  |  | 
14 | CCN1CCC(C2C3CC4CC(C3)CC2C4)CC1 (stereo not drawn) | > 10 | 25 | < 5.00 |  |  |  | 
